Experimental data reported in patent EP0590919A1, “Therapeutic agents for parkinson's disease” (KYOWA HAKKO KOGYO CO., LTD., priority 1992, dated 1994).

Columns and labels:
dd-strain male mice = assay: Acute toxicity test (minimum lethal dose, oral); assay type: in vivo; details: oral administration, three mice per group, mortality seven days after administration
Method: Test compounds were orally administered to groups of dd-strain male mice weighing 20 ± 1 g, each group consisting of three mice. Seven days after the administration, minimum lethal dose (MLD) of each compound was determined by observing the mortality.

A₂ receptor = molecular target: T1, A₂ receptor (Rattus norvegicus, UniProt P30543); assay: Adenosine A₂ receptor binding test (³H-CGS 21680 binding); details: [^3H]CGS 21680 was used, rat corpus striatum, read-out: A2 Receptor Inhibition (%); for inhibition at 1 µM: 10^-6M; for inhibition at 0.1 µM: 10^-7M
T1 construct: from tissue; host or cells: rat corpus striatum membrane preparation
Method: The similar procedure as in the above-described adenosine A₁ receptor binding test was repeated using rat corpus striatum to obtain the final precipitate of the tissue thereof. The precipitate was suspended in 50 mM Tris HCl buffer containing 10 mM magnesium chloride and 0.02 unit/mg tissue of adenosine deaminase (manufactured by Sigma Co.) to give a tissue concentration of 5 mg (wet weight)/ml.
The similar procedure as above was repeated to determine the radioactivity bound to the A₂ receptors using 50 µl of CGS 21680 labeled with tritium [³H-2-[p-(2-carboxyethyl)-phenethylamino]-5'-(N-ethylcarboxamide)adenosine: 40 Ci/mmol, manufactured by New England Nuclear Co. (J. Pharmacol. Exp. Ther., 251, 888 (1989)] (final concentration: 4.0 nM) in place of 50 µl of the mixture of N-ethylcarboxamidoadenosine labeled with tritium (³H-NECA: 26 Ci/mmol, manufactured by Amersham Co.) (final concentration: 3.8 nM) and cyclopentyladenosine (CPA, manufactured by Sigma Co.) (final concentration: 50 nM).
The inhibition rate of the test compound against the binding of A₂ receptors (³H-CGS 21680 binding) was calculated by the following equation: [formula] [Notes] • 1. "B" means the amount of radioactivity of ³H-CGS 21680 bound in the presence of a test compound at a concentration shown in Table 4. • 2. "T" means the amount of radioactivity of ³H-CGS 21680 bound in the absence of a test compound. • 3. "N" means the amount of radioactivity of ³H-CGS 21680 bound in the presence of 100 µM CPA.

T1 sequence (P30543 whole entry): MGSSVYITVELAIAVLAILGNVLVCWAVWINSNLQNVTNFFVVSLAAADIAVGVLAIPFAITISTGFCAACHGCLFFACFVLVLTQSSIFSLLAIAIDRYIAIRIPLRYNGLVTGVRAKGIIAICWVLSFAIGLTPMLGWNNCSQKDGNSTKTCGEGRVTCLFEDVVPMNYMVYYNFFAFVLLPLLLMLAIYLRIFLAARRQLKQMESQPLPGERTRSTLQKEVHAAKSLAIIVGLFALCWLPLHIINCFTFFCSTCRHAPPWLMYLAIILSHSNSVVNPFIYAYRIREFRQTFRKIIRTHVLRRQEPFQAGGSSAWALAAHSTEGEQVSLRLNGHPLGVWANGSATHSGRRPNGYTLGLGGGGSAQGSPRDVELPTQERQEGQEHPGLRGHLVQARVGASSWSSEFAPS

## CCn1c(=O)c2[nH]c(/C=C/c3ccc(C)cc3)nc2n(CC)c1=O [Compound 43, (E)-1,3-Diethyl-8-(4-methylstyryl)xanthine]
dd-strain male mice
  MLD: > 100 mg/kg
A₂ receptor
  inhibition at 1 µM: 70%
  inhibition at 0.1 µM: 68%

## CCn1c(=O)c2[nH]c(/C=C/c3ccc(OC)c(C)c3)nc2n(CC)c1=O [Compound 47, (E)-1,3-Diethyl-8-(4-methoxy-3-methylstyryl)xanthine]
dd-strain male mice
  MLD: > 100 mg/kg
A₂ receptor
  inhibition at 1 µM: 92%
  inhibition at 0.1 µM: 67%

## CCn1c(=O)c2c(nc(/C=C/c3ccc(F)c(Cl)c3)n2C)n(CC)c1=O [Compound 105, (E)-8-(3-Chloro-4-fluorostyryl)-1,3-diethyl-7-methylxanthine]
dd-strain male mice
  MLD: > 100 mg/kg
A₂ receptor
  inhibition at 1 µM: 96%
  inhibition at 0.1 µM: 76%

## CCn1c(=O)c2[nH]c(/C=C/c3ccc(OCOC)cc3)nc2n(CC)c1=O [Compound 81, (E)-1,3-Diethyl-8-(4-methoxymethoxystyryl)xanthine]
dd-strain male mice
  MLD: > 100 mg/kg
A₂ receptor
  inhibition at 1 µM: 95%
  inhibition at 0.1 µM: 78%

## CCn1c(=O)c2c(nc(/C=C/c3ccc(OCCCCBr)cc3)n2C)n(CC)c1=O [Compound 114, (E)-8-[4-(4-Bromobutoxy)styryl]-1,3-diethyl-7-methylxanthine]
dd-strain male mice
  MLD: > 100 mg/kg
A₂ receptor
  inhibition at 1 µM: 87%
  inhibition at 0.1 µM: 23%

## CCn1c(=O)c2c(nc(/C=C/c3ccc(-c4ccccc4)cc3)n2C)n(CC)c1=O [Compound 101, (E)-1,3-Diethyl-7-methyl-8-(4-phenylstyryl)xanthine]
dd-strain male mice
  MLD: > 100 mg/kg
A₂ receptor
  inhibition at 1 µM: 76%
  inhibition at 0.1 µM: 36%

## CCCCOc1ccc(/C=C/c2nc3c([nH]2)c(=O)n(CC)c(=O)n3CC)cc1 [Compound 41, (E)-8-(4-Butoxystyryl)-1,3-diethylxanthine]
dd-strain male mice
  MLD: > 100 mg/kg
A₂ receptor
  inhibition at 1 µM: 52%
  inhibition at 0.1 µM: 27%

## CCn1c(=O)c2[nH]c(/C=C/c3cccc(OC(F)(F)F)c3)nc2n(CC)c1=O [Compound 79, (E)-1,3-Diethyl-8-(3-trifluoromethoxystyryl)xanthine]
dd-strain male mice
  MLD: > 100 mg/kg
A₂ receptor
  inhibition at 1 µM: 79%
  inhibition at 0.1 µM: 53%

## CCn1c(=O)c2c(nc(/C=C/c3ccc(OC)c(C)c3)n2C)n(CC)c1=O [Compound 48, (E)-1,3-Diethyl-8-(4-methoxy-3-methylstyryl)-7-methylxanthine]
dd-strain male mice
  MLD: > 100 mg/kg
A₂ receptor
  inhibition at 1 µM: 99%
  inhibition at 0.1 µM: 83%

## CCn1c(=O)c2[nH]c(/C=C/c3cccc(Br)c3)nc2n(CC)c1=O [Compound 91, (E)-8-(3-Bromostyryl)-1,3-diethylxanthine]
dd-strain male mice
  MLD: > 100 mg/kg
A₂ receptor
  inhibition at 1 µM: 51%
  inhibition at 0.1 µM: 9%

## CCn1c(=O)c2[nH]c(/C=C/c3ccc(OC)c(F)c3)nc2n(CC)c1=O [Compound 102, (E)-1,3-Diethyl-8-(3-fluoro-4-methoxystyryl)xanthine]
dd-strain male mice
  MLD: > 100 mg/kg
A₂ receptor
  inhibition at 1 µM: 94%
  inhibition at 0.1 µM: 70%

## CCn1c(=O)c2c(nc(/C=C/c3ccc(OCCCCN=[N+]=[N-])cc3)n2C)n(CC)c1=O [Compound 115, (E)-8-[4-(4-Azidobutoxy)styryl]-1,3-diethyl-7-methylxanthine]
dd-strain male mice
  MLD: > 100 mg/kg
A₂ receptor
  inhibition at 1 µM: 79%
  inhibition at 0.1 µM: 34%

## CCn1c(=O)c2[nH]c(/C=C/c3ccccc3F)nc2n(CC)c1=O [Compound 97, (E)-1,3-Diethyl-8-(2-fluorostyryl)xanthine]
dd-strain male mice
  MLD: > 100 mg/kg
A₂ receptor
  inhibition at 1 µM: 87%
  inhibition at 0.1 µM: 66%

## CCn1c(=O)c2[nH]c(/C=C/c3cc(OC)c4c(c3)OCO4)nc2n(CC)c1=O [Compound 106, (E)-1,3-Diethyl-8-(3-methoxy-4,5-methylenedioxystyryl)xanthine]
dd-strain male mice
  MLD: > 100 mg/kg
A₂ receptor
  inhibition at 1 µM: 94%
  inhibition at 0.1 µM: 83%

## CCn1c(=O)c2c(nc(/C=C/c3cccc(C(F)(F)F)c3)n2C)n(CC)c1=O [Compound 94, (E)-1,3-Diethyl-7-methyl-8-(3-trifluoromethylstyryl)xanthine]
dd-strain male mice
  MLD: > 100 mg/kg
A₂ receptor
  inhibition at 1 µM: 98%
  inhibition at 0.1 µM: 71%

## CCn1c(=O)c2c(nc(/C=C/c3ccc(C(F)(F)F)cc3)n2C)n(CC)c1=O [Compound 74, (E)-1,3-Diethyl-7-methyl-8-(4-trifluoromethylstyryl)xanthine]
dd-strain male mice
  MLD: > 300 mg/kg
A₂ receptor
  inhibition at 1 µM: 87%
  inhibition at 0.1 µM: 59%

## CCn1c(=O)c2[nH]c(/C=C/c3cccc(OC)c3)nc2n(CC)c1=O [Compound 39, (E)-1,3-Diethyl-8-(3-methoxystyryl)xanthine]
dd-strain male mice
  MLD: > 100 mg/kg
A₂ receptor
  inhibition at 1 µM: 88%
  inhibition at 0.1 µM: 80%

## CCn1c(=O)c2[nH]c(/C=C/c3cc(F)cc(F)c3)nc2n(CC)c1=O [Compound 87, (E)-8-(3,5-Difluorostyryl)-1,3-diethylxanthine]
dd-strain male mice
  MLD: > 100 mg/kg
A₂ receptor
  inhibition at 1 µM: 66%
  inhibition at 0.1 µM: 59%

## CCCCOc1ccc(/C=C/c2nc3c(c(=O)n(CC)c(=O)n3CC)n2C)cc1 [Compound 42, (E)-8-(4-Butoxystyryl)-1,3-diethyl-7-methylxanthine]
dd-strain male mice
  MLD: > 100 mg/kg
A₂ receptor
  inhibition at 1 µM: 87%
  inhibition at 0.1 µM: 46%

## CCn1c(=O)c2c(nc(/C=C/c3cc4c(cc3Br)OCO4)n2C)n(CC)c1=O [Compound 96, (E)-8-(2-Bromo-4,5-methylenedioxystyryl)-1,3-diethyl-7-methylxanthine]
dd-strain male mice
  MLD: > 100 mg/kg
A₂ receptor
  inhibition at 1 µM: 101%
  inhibition at 0.1 µM: 84%

## CCn1c(=O)c2c(nc(/C=C/c3cccc(OC(F)(F)F)c3)n2C)n(CC)c1=O [Compound 80, (E)-1,3-Diethyl-7-methyl-8-(3-trifluoromethoxystyryl)xanthine]
dd-strain male mice
  MLD: > 100 mg/kg
A₂ receptor
  inhibition at 1 µM: 86%
  inhibition at 0.1 µM: 72%

## CCn1c(=O)c2[nH]c(/C=C/c3cccc([N+](=O)[O-])c3)nc2n(CC)c1=O [Compound 89, (E)-1,3-Diethyl-8-(3-nitrostyryl)xanthine]
dd-strain male mice
  MLD: > 100 mg/kg
A₂ receptor
  inhibition at 1 µM: 78%
  inhibition at 0.1 µM: 59%

## CCn1c(=O)c2[nH]c(/C=C/c3ccc(Br)cc3)nc2n(CC)c1=O [Compound 77, (E)-8-(4-Bromostyryl)-1,3-diethylxanthine]
dd-strain male mice
  MLD: > 100 mg/kg
A₂ receptor
  inhibition at 1 µM: 54%
  inhibition at 0.1 µM: 54%

## CCn1c(=O)c2c(nc(/C=C/c3ccccc3F)n2C)n(CC)c1=O [Compound 98, (E)-1,3-Diethyl-8-(2-fluorostyryl)-7-methylxanthine]
dd-strain male mice
  MLD: > 100 mg/kg
A₂ receptor
  inhibition at 1 µM: 95%
  inhibition at 0.1 µM: 92%

## CCn1c(=O)c2[nH]c(/C=C/c3cccc(C(F)(F)F)c3)nc2n(CC)c1=O [Compound 93, (E)-1,3-Diethyl-8-(3-trifluoromethylstyryl)xanthine]
dd-strain male mice
  MLD: > 100 mg/kg
A₂ receptor
  inhibition at 1 µM: 85%
  inhibition at 0.1 µM: 53%

## CCn1c(=O)c2[nH]c(/C=C/c3cccc(F)c3C)nc2n(CC)c1=O [Compound 108, (E)-1,3-Diethyl-8-(3-fluoro-2-methylstyryl)xanthine]
dd-strain male mice
  MLD: > 100 mg/kg
A₂ receptor
  inhibition at 1 µM: 94%
  inhibition at 0.1 µM: 87%

## CCn1c(=O)c2[nH]c(/C=C/c3ccc(F)cc3)nc2n(CC)c1=O [Compound 83, (E)-1,3-Diethyl-8-(4-fluorostyryl)xanthine]
dd-strain male mice
  MLD: > 100 mg/kg
A₂ receptor
  inhibition at 1 µM: 70%
  inhibition at 0.1 µM: 75%
